Assay results from patent US20060241114A1, “Derivatives of azasugars as anticancer agents” (priority 2003, published 2006).

Tests used:
LOX (melanoma) = assay: In vitro growth inhibition screen (sulphorhodamine B), LOX; format: cell-based, human; details: LOX cells, incubated for 48 hours, sulphorhodamine B dye; read-out: GI50 (concentration which inhibits the cell growth by 50%), LOX Melanoma
Method: (§1) Each agent was tested over a broad concentration range (ten-fold dilutions starting from ≧100 μM to 10 nM) against 6 human cancer cell lines which was comprised of different tumor types. These are DU145 (prostate carcinoma), HT29 (colorectal adenocarcinoma), LOX (melanoma), MCF7 (breast adenocarcinoma), MCF7ADR (adriamycin resistant breast adenocarcinoma), and U251 (human glioblastoma). A standard compound doxorubicin was tested in each assay as a positive control. The cells were maintained in growing condition in RPMI 1640 medium containing 10% fetal calf serum and incubated at 37° C. under 5% CO2 atmosphere. All cell lines were inoculated onto a series of standard 96-well microtitre plate on day zero, followed by twenty four-hour incubation in the absence of test compound. The inoculation densities in the screen were as per Monk et al., (1991) J. Natl. Cancer Inst., 83, 757-766. All NCEs were dissolved in DMSO and diluted further in culture medium. An aliquot of each dilution was added to the growing cells in 96 well plates and incubated for 48 hours. After incubation, the assay was terminated by adding 50 μL of trichloroacetic acid (TCA) and incubating at 4° C. for 30 min. The precipitated cells were washed and stained with sulphorhodamine B dye for 30 min and the excess dye was washed off with acetic acid. Adsorbed dye was solubilised in Tris base (alkaline pH) and quantitated by measuring the OD at […] in ELISA READER. GI50 (concentration which inhibits the cell growth by 50%) was calculated according to Boyd and Paull, (1995) Drug Dev. Res., 34, 91-109.

[1] = test system: DU145 (prostate carcinoma); assay: In vitro growth inhibition screen (sulphorhodamine B), DU145; format: cell-based, human; details: DU145 cells, incubated for 48 hours, sulphorhodamine B dye; read-out: GI50 (concentration which inhibits the cell growth by 50%), DU145 Prostate carcinoma
Method: as §1

[2] = test system: MCF7ADR (adriamycin resistant breast adenocarcinoma); assay: In vitro growth inhibition screen (sulphorhodamine B), MCF7ADR; format: cell-based, human; details: MCF7ADR cells, incubated for 48 hours, sulphorhodamine B dye; read-out: GI50 (concentration which inhibits the cell growth by 50%), MCF7ADR Adriamycin Resistant Breast adenocarcinoma
Method: as §1

[3] = test system: HT29 (colorectal adenocarcinoma); assay: In vitro growth inhibition screen (sulphorhodamine B), HT29; format: cell-based, human; details: HT29 cells, incubated for 48 hours, sulphorhodamine B dye; read-out: GI50 (concentration which inhibits the cell growth by 50%), HT29 Colorectal adenocarcinoma
Method: as §1

[4] = test system: MCF7 (breast adenocarcinoma); assay: In vitro growth inhibition screen (sulphorhodamine B), MCF7; format: cell-based, human; details: MCF7 cells, incubated for 48 hours, sulphorhodamine B dye; read-out: GI50 (concentration which inhibits the cell growth by 50%), MCF7 Breast adenocarcinoma
Method: as §1

[5] = test system: U251 (human glioblastoma); assay: In vitro growth inhibition screen (sulphorhodamine B), U251; format: cell-based; details: U251 cells, incubated for 48 hours, sulphorhodamine B dye; read-out: GI50 (concentration which inhibits the cell growth by 50%), U251 Human glioblastoma astrocytoma
Method: as §1

Row | GI50 (LOX (melanoma)) | GI50 [1] | GI50 [2] | GI50 [3] | GI50 [4] | GI50 [5] | Compound
1 | 27.3 µM | 43.5 µM | 40.3 µM | 11.3 µM | 7.2 µM | 25.9 µM | C=CCN1C[C@H](OCc2ccccc2)[C@@H](OCc2ccccc2)[C@H](OCc2ccccc2)[C@H]1CN1CCOCC1 [Compound No. 85, N-Allyl-2,3,4-tri-O-benzyl-1,5-dideoxy-1,5-imino-6-morpholino glucitol]
2 | 45.1 µM | 57.3 µM | 29.8 µM | 33.6 µM | 9.2 µM | 4.3 µM | 2,3,4-Tri-O-benzyl-6-N-[3-{2-iminocarbonyl aminoethyl)-indolyl]-N-propyl-D-gluco-δ-lactam [Compound No. 78]
3 | 29.5 µM | 49.4 µM | 69.1 µM | 17.5 µM | 56.1 µM | 28.6 µM | CCCN1C(=O)[C@H](OCc2ccccc2)[C@@H](OCc2ccccc2)[C@H](OCc2ccccc2)[C@H]1CNC(=O)N1CCc2ccccc21 [Compound No. 77, 2,3,4-Tri-O-benzyl-6-N-{1,2-dihydro(2H)-indolylcarboxamido}-N-propyl-D-gluco-δ-lactam]
4 | > 419 µM | 148 µM | > 419 µM | 92.9 µM | 397 µM | > 419 µM | C=CCN1C(=O)[C@H](OCc2ccccc2)[C@@H](OCc2ccccc2)[C@H](OCc2ccccc2)[C@H]1COC(=O)c1cccs1 [Compound No. 45]
5 | 8.7 µM | 88.5 µM | 7.5 µM | 29.2 µM | 2.3 µM | 29.8 µM | C=CCN1C[C@H](OCc2ccccc2)[C@@H](OCc2ccccc2)[C@H](OCc2ccccc2)[C@H]1COC(=O)Nc1ccc(Cl)cc1 [Compound No. 44, N-Allyl-2,3,4-tri-O-benzyl-6-{p-chlorophenylcarbamate}-1,5-dideoxy-1,5-imino glucitol]
6 | 10.8 µM | > 353 µM | 58.4 µM | 68.6 µM | > 353 µM | 63.5 µM | CCCN1C(=O)[C@H](OCc2ccccc2)[C@@H](OCc2ccccc2)[C@H](OCc2ccccc2)[C@H]1CNC(=O)Nc1ccc(Cl)cc1C(F)(F)F [Compound No. 7, 2,3,4-Tri-O-benzyl-6-N-{[4-chloro-2-trifluoromethylphenyl]aminocarbonylamino}-N-propyl-D-gluco-δ-lactam]
7 | 7.6 µM | 21 µM | 6.7 µM | 30.4 µM | 35.7 µM | 15 µM | CCCN1C(=O)[C@H](OCc2ccccc2)[C@@H](OCc2ccccc2)[C@H](OCc2ccccc2)[C@H]1CNC(=O)Nc1cccc(C(C)=O)c1 [Compound No. 14, 2,3,4-Tri-O-benzyl-6-N-{[3-acetylphenyl]aminocarbonylamino}-N-propyl-D-gluco-δ-lactam]
8 | 12 µM | 10.7 µM | 24.5 µM | 22.8 µM | 40.3 µM | 40.5 µM | CCCN1C(=O)[C@H](OCc2ccccc2)[C@@H](OCc2ccccc2)[C@H](OCc2ccccc2)[C@H]1COC(=O)CN1C(=O)CCCC1=O [Compound No. 56, 2,3,4-Tri-O-benzyl-6-{2-[2,6-diketopiperidino]acetyl}-N-propyl-D-gluco-δ-lactam]

Row | Compound | GI50 (LOX (melanoma)) | GI50 [1] | GI50 [2] | GI50 [3] | GI50 [4] | GI50 [5]
9 | CCCN1C(=O)[C@H](O)[C@@H](O)[C@H](O)[C@H]1CNC(=O)C12CC3CC(CC(C3)C1)C2 [Compound No. 50, 6-(Adamantanecarboxamido)-N-propyl-D-gluco-δ-lactam] | 97.2 µM | 108 µM | 138 µM | 38.1 µM | 82.8 µM | 144 µM
10 | CCCN1C(=O)[C@H](O)[C@@H](O)[C@H](O)[C@H]1CNC(=O)Nc1ccc(N)cc1 [Compound No. 28, 6-N-{[p-Aminophenyl]aminocarbonylamino}-N-propyl-D-gluco-δ-lactam] | 136 µM | 288 µM | 194 µM | 242 µM | 106 µM | 557 µM
